Patent US9365583B2, “Substituted pyrazoles and uses thereof” (Genentech, Inc., priority 2013, dated 2016)

Biological target: T1, N-terminally GST-tagged DLK (catalytic domain amino acid 1-520) (Homo sapiens, UniProt Q12852)
T1 construct: N-terminally GST-tagged DLK (catalytic domain amino acid 1-520); purchased Carna Bioscience
T1 sequence (Q12852 1-520): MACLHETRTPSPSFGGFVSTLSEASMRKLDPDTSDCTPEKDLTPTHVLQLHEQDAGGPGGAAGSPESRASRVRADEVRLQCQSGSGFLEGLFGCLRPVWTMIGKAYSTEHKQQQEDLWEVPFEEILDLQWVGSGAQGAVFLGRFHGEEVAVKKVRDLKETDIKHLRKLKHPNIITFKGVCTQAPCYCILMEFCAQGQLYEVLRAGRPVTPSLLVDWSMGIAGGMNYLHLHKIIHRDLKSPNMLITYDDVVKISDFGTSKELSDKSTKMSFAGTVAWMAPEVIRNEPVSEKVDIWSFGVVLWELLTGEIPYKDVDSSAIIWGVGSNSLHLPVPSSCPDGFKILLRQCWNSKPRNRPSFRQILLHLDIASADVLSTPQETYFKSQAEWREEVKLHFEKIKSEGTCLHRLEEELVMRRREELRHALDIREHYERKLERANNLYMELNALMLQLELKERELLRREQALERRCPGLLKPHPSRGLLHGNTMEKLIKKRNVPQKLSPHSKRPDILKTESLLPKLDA
Assay: DLK TR-FRET inhibition assay
Format: biochemical
Settings: 5 nM GST-DLK, 40 nM HIS-MKK4 K131M substrate, 30 μM ATP, 60 minutes at ambient temperature
In short: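 5 nM GST-DLK (aa 1-520), 40 nM HIS-MKK4 K131M and 30 μM ATP reacted 60 min at ambient temperature in HEPES pH 7.5 buffer with 10 mM MgCl2, compound 1:3 serially diluted from 20 uM. TR-FRET detection of phospho-MKK4 used Eu-cryptate anti-phospho-MKK4 plus D2 anti-HIS, read after 3 h (665/615 nm).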

| SMILES | Ki |
| --- | --- |
| CC(C)n1nc(-c2cnc(N)c(C(F)(F)F)c2)cc1[C@H]1[C@@H]2C[C@@H](N3CCN(C)C4(COC4)C3)C[C@@H]21 [compound 180, 5-(1-isopropyl-5-((1R,3s,5S,6r)-3-(5-methyl-2-oxa-5,8-diazaspiro [3.5]nonan-8-yl)bicyclo[3.1.0]hexan-6-yl)-1H-pyrazol-3-yl)-3-(trifluoromethyl)pyridin-2-amine] | 5.8 nM |
| CC(C)n1nc(-c2cnc(N)c(OC(F)F)c2)cc1[C@H]1[C@@H]2C[C@H](N3CCO[C@H](C)C3)C[C@@H]21 [compound 77, 3-(difluoromethoxy)-5-(1-isopropyl-5-((1R,3r,5S,6R)-3-((R)-2-methylmorpholino)bicyclo[3.1.0]hexan-6-yl)-1H-pyrazol-3-yl) pyridin-2-amine] | 1.3 nM |
| Nc1ncc(-c2cc([C@H]3[C@@H]4C[C@@H](N5CCOCC5)C[C@@H]43)n(CC3CC3)n2)cc1OC(F)(F)F [compound 292, 5-(1-(cyclopropylmethyl)-5-((1R,3s,5S,6r)-3-morpholinobicyclo [3.1.0]hexan-6-yl)-1H-pyrazol-3-yl)-3-(trifluoromethoxy) pyridin-2-amine] | 4.6 nM |
| CC(C)n1nc(-c2cnc(N)c(C(F)(F)F)c2)cc1[C@H]1[C@@H]2C[C@H](N3CCS(=O)(=O)CC3)C[C@@H]21 [compound 10, 4-((1R,3r,5S,6r)-6-(3-(6-amino-5-(trifluoromethyl)pyridin-3-yl)-1-isopropyl-1H-pyrazol-5-yl)bicyclo[3.1.0]hexan-3-yl)thio-morpholine 1,1-dioxide] | 3.28 nM |
| COCCN1CC[C@@]12C[C@@H]1[C@H](C2)[C@H]1c1cc(-c2cnc(N)c(OC(F)(F)F)c2)nn1C(C)C [compound 146, 5-(1-isopropyl-5-((1′R,2r,5′S,6′r)-1-(2-methoxyethyl)spiro[azetidine-2,3′-bicyclo[3.1.0]hexan]-6-yl)-1H-pyrazol-3-yl)-3-(trifluoro-methoxy)pyridin-2-amine] | 4.3 nM |
| Nc1ncc(-c2cc([C@H]3[C@@H]4C[C@@H](N5CCOCC5)C[C@@H]43)n(CC3CC3)n2)cc1C(F)(F)F [compound 280, 5-(1-(cyclopropylmethyl)-5-((1R,3s,5S,6r)-3-morpholinobicyclo [3.1.0]hexan-6-yl)-1H-pyrazol-3-yl)-3-(trifluoromethyl)pyridin-2-amine] | 1.1 nM |
| CC(C)n1nc(-c2cnc(N)c(C(F)(F)F)c2)cc1[C@H]1[C@@H]2C[C@@H](N(C)C3COC3)C[C@@H]21 [compound 50, 5-(1-isopropyl-5-((1R,3s,5S,6r)-3-(methyl(oxetan-3-yl)amino)bicyclo[3.1.0]hexan-6-yl)-1H-pyrazol-3-yl)-3-(trifluoromethyl) pyridin-2-amine] | 2.83 nM |
| COCCN1CC2(C[C@@H]3[C@H](C2)[C@H]3c2cc(-c3cnc(N)c(C(F)(F)F)c3)nn2C(C)C)C1 [compound 141, 5-(1-isopropyl-5-((1′R,5′S,6′r)-1-(2-methoxyethyl)spiro[azetidine-3,3′-bicyclo[3.1.0]hexan]-6′-yl)-1H-pyrazol-3-yl)-3-(trifluoromethyl)pyridin-2-amine] | 8.52 nM |
| CC(C)n1nc(-c2cnc(N)c(OC(F)F)c2)cc1[C@H]1[C@@H]2C[C@H]3CN(C)C[C@H]3[C@@H]21 (racemic) [compound 163, (±)-3-(difluoromethoxy)-5-(1-isopropyl-5-((3aS,3bR,4S,4aR,5aR)-2-methyloctahydro-1H-cyclopropa[3,4]cyclopenta[1,2-c]pyrrol-4-yl)-1H-pyrazol-3-yl) pyridin-2-amine] | 2.8 nM |
| Nc1ncc(-c2cc([C@H]3[C@@H]4C[C@H](N5CCCOCC5)C[C@@H]43)n(CC(F)F)n2)cc1OC(F)F [compound 233, 5-(5-((1R,3r,5S,6r)-3-(1,4-oxazepan-4-yl)bicyclo[3.1.0]hexan-6-yl)-1-(2,2-difluoroethyl)-1H-pyrazol-3-yl)-3-(difluoromethoxy) pyridin-2-amine] | 1.8 nM |

Continued, values first:

| Ki | SMILES |
| --- | --- |
| 4.2 nM | CC(C)n1nc(-c2cnc(N)c(OC(F)F)c2)cc1[C@H]1[C@@H]2C[C@@H](F)C[C@@H]21 [compound 217, 3-(difluoromethoxy)-5-(5-((1R,3s,5S,6r)-3-fluorobicyclo[3.1.0]hexan-6-yl)-1-isopropyl-1H-pyrazol-3-yl)pyridin-2-amine] |
| 3.93 nM | CC(C)n1nc(-c2cnc(N)c(C(F)(F)F)c2)cc1[C@H]1[C@@H]2C[C@@H](N3CCN(C)CC3)C[C@@H]21 [compound 67, 5-(1-isopropyl-5-((1R,3s,5S,6r)-3-(4-methylpiperazin-1-yl)bicyclo [3.1.0]hexan-6-yl)-1H-pyrazol-3-yl)-3-(trifluoromethyl)pyridin-2-amine] |
| 3.4 nM | CC(C)n1nc(-c2cnc(N)c(C(F)(F)F)c2)cc1[C@H]1[C@@H]2C[C@H](NCC(F)F)C[C@@H]21 [compound 253, 5-(5-((1R,3r,5S,6r)-3-((2,2-difluoroethyl)amino)bicyclo[3.1.0]hexan-6-yl)-1-isopropyl-1H-pyrazol-3-yl)-3-(trifluoromethyl) pyridin-2-amine] |
| 1.1 nM | CC(C)n1nc(-c2cnc(N)c(OC(F)F)c2)cc1[C@H]1[C@@H]2C[C@@H](N3CCOC[C@@H]3C)C[C@@H]21 [compound 79, 3-(difluoromethoxy)-5-(1-isopropyl-5-((1R,3s,5S,6S)-3-((S)-3-methylmorpholino)bicyclo[3.1.0]hexan-6-yl)-1H-pyrazol-3-yl) pyridin-2-amine] |
| 1.2 nM | CO[C@H]1CCN([C@H]2C[C@@H]3[C@H](C2)[C@H]3c2cc(-c3cnc(N)c(OC(F)F)c3)nn2CC2CC2)C1 [compound 158, 5-(1-(cyclopropylmcthyl)-5-((1R,3r,5S,6S)-3-((S)-3-methoxy-pyrrolidin-1-yl)bicyclo[3.1.0]hexan-6-yl)-1H-pyrazol-3-yl)-3-(difluoromethoxy)pyridin-2-amine] |
| 6.3 nM | CC(C)n1nc(-c2cnc(N)c(OC(F)(F)F)c2)cc1[C@H]1[C@@H]2C[C@@H](NCC(F)F)C[C@@H]21 [compound 288, 5-(5-((1R,3s,5S,6r)-3-((2,2-udifloroethyl)amino)bicyclo[3.1.0]hexan-6-yl)-1-isopropyl-1H-pyrazol-3-yl)-3-(tritluoromethoxy) pyridin-2-amine] |
| 2.6 nM | CC(C)n1nc(-c2cnc(N)c(OC(F)F)c2)cc1[C@H]1[C@@H]2C[C@H](N3CC4CC(C3)O4)C[C@@H]21 [compound 271, 5-(5-((1R,3r,5S,6r)-3-(6-oxa-3-azabicyclo[3.1.1]heptan-3-yl)bicyclo[3.1.0]hexan-6-yl)-1-iso-propyl-1H-pyrazol-3-yl)-3-(difluoro-methoxy)pyridin-2-amine] |
| 2 nM | CC(C)n1nc(-c2cnc(N)c(OC(F)(F)F)c2)cc1[C@H]1[C@@H]2C[C@@H](N3CC4(CCCO4)C3)C[C@@H]21 [compound 221, 5-(5-((1R,3s,5S,6r)-3-(5-oxa-2-azaspiro[3.4]octan-2-yl)bicyclo [3.1.0]hexan-6-yl)-1-isopropyl-1H-pyrazol-3-yl)-3-(trifluoromethoxy) pyridin-2-amine] |
| 6.64 nM | CC(C)n1nc(-c2cnc(N)c(OC(F)F)c2)cc1[C@H]1[C@@H]2C[C@@H](N3C[C@@H](F)[C@@H](F)C3)C[C@@H]21 [compound 119, 3-(difluoromethoxy)-5-(5-((1R, 3s,5S,6R)-3-((3S,4R)-3,4-difluoro-pyrrolidin-1-yl)bicyclo[3.1.0]hexan-6-yl)-1-isopropyl-1H-pyrazol-3-yl)pyridin-2-amine] |
| 4.5 nM | CC(C)n1nc(-c2cnc(N)c(OC(F)F)c2)cc1[C@H]1[C@@H]2CC3(COC3)C[C@@H]21 [compound 170, 3-(difluoromethoxy)-5-(1-isopropyl-5-((1R,5S,6r)-spiro[bicyclo [3.1.0]hexane-3,3′-oxetan]-6-yl)-1H-pyrazol-3-yl)pyridin-2-amine] |
| 2.7 nM | CC(C)n1nc(-c2cnc(N)c(OC(F)F)c2)cc1[C@H]1[C@@H]2C[C@H](OCC(C)(C)O)C[C@@H]21 [compound 168, 1-(((1R,3r,5S,6r)-6-(3-(6-ammo-5-(difluoromethoxy)pyridin-3-yl)-1-isopropyl-1H-pyrazol-5-yl)bicyclo[3.1.0]hexan-3-yl)oxy)-2-methylpropan-2-ol] |
| 5.2 nM | COCC1(F)CCN(C2C[C@@H]3C(c4cc(-c5cnc(N)c(OC(F)F)c5)nn4C(C)C)[C@@H]3C2)C1 (single isomer, unassigned) [compound 174] |
| 31.9 nM | CC(C)n1nc(-c2cnc(N)c(C(F)(F)F)c2)cc1[C@@H]1[C@H]2CC[C@H](O)[C@H]21 (single isomer, unassigned) [compound 143, 6-(3-(6-amino-5-trifluoromethylpyridin-3-yl)-1-isopropyl-1H-pyrazol-5-yl)bicyclo[3.1.0]hexan-2-ol] |
| 2.8 nM | CC(C)n1nc(-c2cnc(N)c(C(F)(F)F)c2)cc1[C@H]1[C@@H]2CC(N3CC4COCC4C3)C[C@@H]21 (single isomer, unassigned) [compound 270] |
